Results published in ChEMBL document CHEMBL1201862, “PubChem BioAssay data set” (2004).
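Values below derive from 48-hour exposures of cells grown in 96-well plates, with endpoints linearly interpolated between the two concentrations bracketing the appropriate inhibition level. GI50: concentration for 50% inhibition of growth.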 The source made the active and inactive calls. Cut-off read from the data, not from the text of the source: active = GI50 up to about 1.1 µM and inactive = higher.

Legend:
Assay in all cases: NCI anticancer screen, dose series, 48 h
SNB-19 = tested on: SNB-19
RXF 393 = tested on: RXF 393
U-251 = tested on: U-251
DU-145 = tested on: DU-145
UACC-62 = tested on: UACC-62
RPMI-8226 = tested on: RPMI-8226
PC-3 = tested on: PC-3
SNB-75 = tested on: SNB-75
SK-MEL-2 = tested on: SK-MEL-2
SK-MEL-28 = tested on: SK-MEL-28
786-0 = tested on: 786-0
COLO 205 = tested on: COLO 205
NCI-H226 = tested on: NCI-H226
SK-OV-3 = tested on: SK-OV-3
SK-MEL-5 = tested on: SK-MEL-5
A498 = tested on: A498
K562 = tested on: K562
MOLT-4 = tested on: MOLT-4
M14 = tested on: M14
SR = tested on: SR

| SMILES | GI50 (SNB-19) | GI50 (RXF 393) | GI50 (U-251) | GI50 (DU-145) | GI50 (UACC-62) | GI50 (RPMI-8226) | GI50 (PC-3) | GI50 (SNB-75) | GI50 (SK-MEL-2) | GI50 (SK-MEL-28) | GI50 (786-0) | GI50 (COLO 205) | GI50 (NCI-H226) | GI50 (SK-OV-3) | GI50 (SK-MEL-5) | GI50 (A498) | GI50 (K562) | GI50 (MOLT-4) | GI50 (M14) | GI50 (SR) |
| --- | --- | --- | --- | --- | --- | --- | --- | --- | --- | --- | --- | --- | --- | --- | --- | --- | --- | --- | --- | --- |
| CC(=NNC(=S)Nc1ccccc1)c1cccc(C(C)=NNC(=S)Nc2ccccc2)n1 | 19.3 µM (inactive) | 3.01 µM (inactive) | 4.99 µM (inactive) | > 20.1 µM (inactive) | 2.43 µM (inactive) | 2.83 µM (inactive) | 5.21 µM (inactive) | 10.8 µM (inactive) | 41.1 µM (inactive) | > 100 µM (inactive) | 1.75 µM (inactive) | 2.48 µM (inactive) | 1.06 µM (active) | 5.98 µM (inactive) | 2.64 µM (inactive) | 7.55 µM (inactive) | 3.04 µM (inactive) | 2.29 µM (inactive) | 1.97 µM (inactive) |  |
| O=c1[nH]nc(Cc2ccccc2)n1/N=C/c1ccc(/C=N/n2c(Cc3ccccc3)n[nH]c2=O)cc1 | > 100 µM (inactive) | 35.3 µM (inactive) | 57.3 µM (inactive) | > 100 µM (inactive) | > 100 µM (inactive) | > 100 µM (inactive) | > 100 µM (inactive) |  | > 100 µM (inactive) | > 100 µM (inactive) | > 100 µM (inactive) | > 100 µM (inactive) | > 100 µM (inactive) |  | > 100 µM (inactive) | > 100 µM (inactive) | 20.2 µM (inactive) | 19.4 µM (inactive) | > 100 µM (inactive) |  |
| CC(=O)Nc1ccc2c(C)c3c4ccccc4n(C)c3nc2n1 | 39.1 µM (inactive) | 16.1 µM (inactive) |  | 21 µM (inactive) | 20.1 µM (inactive) |  | 18.9 µM (inactive) | 14.4 µM (inactive) | 20.6 µM (inactive) |  | 8.17 µM (inactive) | 12.7 µM (inactive) | 29.6 µM (inactive) |  | 9.29 µM (inactive) | 18.1 µM (inactive) |  | 5.83 µM (inactive) | 20.7 µM (inactive) | 10.6 µM (inactive) |
| COc1ncc(C#CC(=O)c2ccccc2)c(OC)n1 | 15.8 µM (inactive) | 1.85 µM (inactive) | 4.71 µM (inactive) | 8.07 µM (inactive) | 4.03 µM (inactive) | 2.33 µM (inactive) | 1.89 µM (inactive) | 5.2 µM (inactive) | 5.07 µM (inactive) | 5.11 µM (inactive) | 2.04 µM (inactive) | 1.99 µM (inactive) | 2.07 µM (inactive) | 19.7 µM (inactive) | 2.09 µM (inactive) | 17.9 µM (inactive) | 0.726 µM (active) | 0.679 µM (active) | 2.22 µM (inactive) |  |
| Cc1ccc(C)c(COCCOCn2cc(Br)c(N)nc2=O)c1 | > 100 µM (inactive) | > 100 µM (inactive) | > 100 µM (inactive) | > 100 µM (inactive) | > 100 µM (inactive) |  | > 100 µM (inactive) | > 100 µM (inactive) | > 100 µM (inactive) | > 100 µM (inactive) | > 100 µM (inactive) | > 100 µM (inactive) | > 100 µM (inactive) | > 100 µM (inactive) |  | > 100 µM (inactive) | > 100 µM (inactive) | > 100 µM (inactive) | > 100 µM (inactive) | > 100 µM (inactive) |
| O=C(c1ccccc1)N1N=C(C(F)(F)F)CC1(O)C(F)(F)F (stereo unspecified) | > 100 µM (inactive) |  | > 100 µM (inactive) | > 100 µM (inactive) |  | > 100 µM (inactive) | > 100 µM (inactive) | > 100 µM (inactive) | > 100 µM (inactive) | > 100 µM (inactive) | > 100 µM (inactive) | > 100 µM (inactive) | > 100 µM (inactive) |  |  | > 100 µM (inactive) | > 100 µM (inactive) | > 100 µM (inactive) | > 100 µM (inactive) | > 100 µM (inactive) |
| OC(c1cc2ccccc2[nH]1)C1(c2cccnc2)SCCCS1 (stereo unspecified) | > 100 µM (inactive) | 31.8 µM (inactive) | 47.1 µM (inactive) | > 100 µM (inactive) | 50.9 µM (inactive) |  | 38.5 µM (inactive) | 73.6 µM (inactive) | 19.1 µM (inactive) | > 100 µM (inactive) | 97.3 µM (inactive) | 61.4 µM (inactive) | > 100 µM (inactive) | > 100 µM (inactive) | 43.6 µM (inactive) | 17.9 µM (inactive) | 27.2 µM (inactive) | 27.9 µM (inactive) | 51.2 µM (inactive) | 41.8 µM (inactive) |
| O=C1NC(=O)C(C(c2ccc(Cl)cc2)C2C(=O)NC(=O)NC2=O)C(=O)N1.c1ccncc1 | > 100 µM (inactive) | 58.9 µM (inactive) | > 100 µM (inactive) | > 100 µM (inactive) | > 100 µM (inactive) | > 100 µM (inactive) | > 100 µM (inactive) |  | > 100 µM (inactive) | > 100 µM (inactive) | > 100 µM (inactive) | > 100 µM (inactive) | > 100 µM (inactive) |  | > 100 µM (inactive) | > 100 µM (inactive) | > 100 µM (inactive) | > 100 µM (inactive) | > 100 µM (inactive) |  |
| COC(=O)[C@]12CCC(=O)N1[C@H](C(=O)O)Cc1c2[nH]c2ccccc12 | > 100 µM (inactive) | > 100 µM (inactive) | > 100 µM (inactive) | > 100 µM (inactive) | > 100 µM (inactive) |  | > 100 µM (inactive) | > 100 µM (inactive) | > 100 µM (inactive) | > 100 µM (inactive) | > 100 µM (inactive) | > 100 µM (inactive) |  | > 100 µM (inactive) | > 100 µM (inactive) | > 100 µM (inactive) | > 100 µM (inactive) | > 100 µM (inactive) | > 100 µM (inactive) | > 100 µM (inactive) |
| Cc1ccccc1NC(=O)/C(C#N)=N\Nc1[nH]cnc1C(N)=O | > 100 µM (inactive) | 15.3 µM (inactive) | 37.1 µM (inactive) | 2.79 µM (inactive) | 12.9 µM (inactive) | 1.83 µM (inactive) | 4.44 µM (inactive) | 54.5 µM (inactive) | 1.18 µM (inactive) | 28.7 µM (inactive) | 19.3 µM (inactive) | 21.9 µM (inactive) | 41.4 µM (inactive) | 1.59 µM (inactive) | 35.3 µM (inactive) |  | 1.89 µM (inactive) | 2.88 µM (inactive) | 2.66 µM (inactive) |  |
| C=C(C)CCC(O)[C@](C)(O)[C@H]1[C@H](O)C[C@@]2(C)[C@@H]3CCc4c(cc(OC5OC(CO)C(O)C(O)C5O)c(O)c4C)C3(C)C(=O)C[C@]12C (stereo partly specified) | > 100 µM (inactive) | > 100 µM (inactive) | > 100 µM (inactive) | > 100 µM (inactive) | > 100 µM (inactive) |  | > 100 µM (inactive) | > 100 µM (inactive) | > 100 µM (inactive) | > 100 µM (inactive) | > 100 µM (inactive) | > 100 µM (inactive) | > 100 µM (inactive) | > 100 µM (inactive) | > 10 µM (inactive) | > 100 µM (inactive) | > 100 µM (inactive) | > 100 µM (inactive) | > 100 µM (inactive) | > 100 µM (inactive) |
| O=c1cn[nH]c(=S)n1/N=C/c1c[nH]c2ccccc12 | > 100 µM (inactive) |  | > 100 µM (inactive) | > 100 µM (inactive) | 78.7 µM (inactive) | 49.5 µM (inactive) | 77.6 µM (inactive) |  | > 100 µM (inactive) | > 100 µM (inactive) | > 100 µM (inactive) | > 100 µM (inactive) |  | > 100 µM (inactive) | > 100 µM (inactive) | > 100 µM (inactive) | 48 µM (inactive) | 37.6 µM (inactive) | > 100 µM (inactive) | 45.3 µM (inactive) |
| O=C(Nc1ccc(Cl)c(Cl)c1)C(=O)C(C1OC(=O)c2ccccc21)[N+](=O)[O-] (stereo unspecified) | > 100 µM (inactive) | 95.1 µM (inactive) | > 100 µM (inactive) | > 100 µM (inactive) | > 100 µM (inactive) |  | > 100 µM (inactive) | > 100 µM (inactive) | > 100 µM (inactive) | > 100 µM (inactive) | > 100 µM (inactive) | > 100 µM (inactive) | > 100 µM (inactive) | > 100 µM (inactive) | > 100 µM (inactive) | > 100 µM (inactive) |  | > 100 µM (inactive) | > 100 µM (inactive) | > 100 µM (inactive) |
| O=C(O)CSCC(=O)Nc1ccc2cccc3c2c1CC3 | > 100 µM (inactive) | > 100 µM (inactive) | > 100 µM (inactive) | > 100 µM (inactive) | > 100 µM (inactive) | > 100 µM (inactive) | > 100 µM (inactive) | > 100 µM (inactive) | > 100 µM (inactive) | > 100 µM (inactive) | > 100 µM (inactive) | > 100 µM (inactive) |  |  | > 100 µM (inactive) | > 100 µM (inactive) | > 100 µM (inactive) | > 100 µM (inactive) | > 100 µM (inactive) |  |
| O=c1oc2ccccc2cc1-c1cc2ccccn2c1 | > 100 µM (inactive) | > 100 µM (inactive) | > 100 µM (inactive) | > 100 µM (inactive) | > 100 µM (inactive) | > 100 µM (inactive) | > 100 µM (inactive) | > 100 µM (inactive) | > 100 µM (inactive) | > 100 µM (inactive) | > 100 µM (inactive) | > 100 µM (inactive) | > 100 µM (inactive) | > 100 µM (inactive) | > 100 µM (inactive) | > 100 µM (inactive) | > 100 µM (inactive) | > 100 µM (inactive) | > 100 µM (inactive) |  |
